Columns and labels:
Assay in all cases: viability relative to DMSO control (fraction); higher = less drug effect (more viable cells)
Conditions in all cases: 48 h
Pralatrexate = compound: C#CCC(Cc1cnc2nc(N)nc(N)c2n1)c1ccc(C(=O)N[C@@H](CCC(=O)O)C(=O)O)cc1 [Pralatrexate]
Method in brief: (§1)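 Viability was quantified by CellTiter-Glo luminescence and related to the median of 16 inner DMSO wells. Before that, primary mononuclear tumour cells, fresh or cryopreserved and Ficoll-isolated from blood or bone marrow or prepared from processed lymph node, were plated at 4 × 10^4 cells per well in 384-well plates containing pre-plated compounds at five concentrations, one well each. Plates were incubated in RPMI-1640 with penicillin/streptomycin, L-glutamine and human serum at 37 °C and 5% CO2 for 48 h.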

TMP269 = compound: O=C(NCC1(c2nc(-c3ccccc3)cs2)CCOCC1)c1cccc(-c2noc(C(F)(F)F)n2)c1 [TMP269]
Method in brief: as §1

8-Azaguanin = compound: Nc1nc2n[nH]nc2c(=O)[nH]1 [8-Azaguanin]
Method in brief: as §1

Tozasertib = compound: Cc1cc(Nc2cc(N3CCN(C)CC3)nc(Sc3ccc(NC(=O)C4CC4)cc3)n2)n[nH]1 [Tozasertib]
Method in brief: as §1

EPZ-5676 = compound: CC(C)N(C[C@H]1O[C@@H](n2cnc3c(N)ncnc32)[C@H](O)[C@@H]1O)[C@H]1C[C@@H](CCc2nc3cc(C(C)(C)C)ccc3[nH]2)C1 [EPZ-5676]
Method in brief: as §1

[1] = compound: CC(C)(C)OC(=O)Nc1ccc(-c2cc(C(=O)NCCCCCCC(=O)NO)no2)cc1
Method in brief: as §1

ONO-4059 = compound: CC#CC(=O)N1CC[C@@H](n2c(=O)n(-c3ccc(Oc4ccccc4)cc3)c3c(N)ncnc32)C1 [ONO-4059]
Method in brief: as §1

Nelarabine = compound: COc1nc(N)nc2c1ncn2[C@@H]1O[C@H](CO)[C@@H](O)[C@@H]1O [Nelarabine]
Method in brief: as §1

Bortezomib = compound: CC(C)C[C@H](NC(=O)[C@H](Cc1ccccc1)NC(=O)c1cnccn1)B(O)O [Bortezomib]
Method in brief: as §1

Ribociclib = compound: CN(C)C(=O)c1cc2cnc(Nc3ccc(N4CCNCC4)cn3)nc2n1C1CCCC1 [Ribociclib]
Method in brief: as §1

BI6727 = compound: CC[C@@H]1C(=O)N(C)c2cnc(Nc3ccc(C(=O)N[C@H]4CC[C@H](N5CCN(CC6CC6)CC5)CC4)cc3OC)nc2N1C(C)C [BI6727]
Method in brief: as §1

Vorinostat = compound: O=C(CCCCCCC(=O)Nc1ccccc1)NO [Vorinostat]
Method in brief: as §1

Obatoclax mesylate = compound: COC1=CC(c2cc3ccccc3[nH]2)=N/C1=C\c1[nH]c(C)cc1C [Obatoclax mesylate]
Method in brief: as §1

Quizartinib = compound: CC(C)(C)c1cc(NC(=O)Nc2ccc(-c3cn4c(n3)sc3cc(OCCN5CCOCC5)ccc34)cc2)no1 [Quizartinib]
Method in brief: as §1

Birinapant = compound: CC[C@H](NC(=O)[C@H](C)NC)C(=O)N1C[C@@H](O)C[C@H]1Cc1c(-c2[nH]c3cc(F)ccc3c2C[C@@H]2C[C@H](O)CN2C(=O)[C@H](CC)NC(=O)[C@H](C)NC)[nH]c2cc(F)ccc12 [Birinapant]
Method in brief: as §1

What does the source list for primary BL patient cells (S005)?
viability (Pralatrexate; 0.024 µM): 0.791; viability (Pralatrexate; 0.12 µM): 0.726; viability (Pralatrexate; 0.6 µM): 0.662; viability (Pralatrexate; 3 µM): 0.709; viability (Pralatrexate; 15 µM): 0.698; viability (TMP269; 0.024 µM): 1.11; viability (TMP269; 0.12 µM): 1.08; viability (TMP269; 0.6 µM): 1.12; viability (TMP269; 3 µM): 1.08; viability (TMP269; 15 µM): 1; viability (8-Azaguanin; 0.032 µM): 0.991; viability (8-Azaguanin; 0.16 µM): 1.05; viability (8-Azaguanin; 0.8 µM): 0.978; viability (8-Azaguanin; 4 µM): 0.812; viability (8-Azaguanin; 20 µM): 0.658; viability (Tozasertib; 0.024 µM): 0.826; viability (Tozasertib; 0.12 µM): 1.33; viability (Tozasertib; 0.6 µM): 0.802; viability (Tozasertib; 3 µM): 1.17; viability (Tozasertib; 15 µM): 0.568; viability (EPZ-5676; 0.0032 µM): 1.54; viability (EPZ-5676; 0.016 µM): 1.13; viability (EPZ-5676; 0.08 µM): 1.46; viability (EPZ-5676; 0.4 µM): 1.35; viability (EPZ-5676; 2 µM): 1; viability ([1]; 0.024 µM): 1.06; viability ([1]; 0.12 µM): 0.802; viability ([1]; 0.6 µM): 0.738; viability ([1]; 3 µM): 0.591; viability ([1]; 15 µM): 0.382; viability (ONO-4059; 0.0016 µM): 1.07; viability (ONO-4059; 0.008 µM): 1.12; viability (ONO-4059; 0.04 µM): 1.06; viability (ONO-4059; 0.2 µM): 1.15; viability (ONO-4059; 1 µM): 1.07; viability (Nelarabine; 0.024 µM): 0.894; viability (Nelarabine; 0.12 µM): 0.99; viability (Nelarabine; 0.6 µM): 0.893; viability (Nelarabine; 3 µM): 0.996; viability (Nelarabine; 15 µM): 0.873; viability (Bortezomib; 0.008 µM): 1.57; viability (Bortezomib; 0.04 µM): 0.959; viability (Bortezomib; 0.2 µM): 1.54; viability (Bortezomib; 1 µM): 0.964; viability (Bortezomib; 5 µM): 1.44; viability (Ribociclib; 0.024 µM): 1.06; viability (Ribociclib; 0.12 µM): 1.41; viability (Ribociclib; 0.6 µM): 1.08; viability (Ribociclib; 3 µM): 0.993; viability (Ribociclib; 15 µM): 1.15; viability (BI6727; 0.024 µM): 0.931; viability (BI6727; 0.12 µM): 0.881; viability (BI6727; 0.6 µM): 0.9; viability (BI6727; 3 µM): 0.725; viability (BI6727; 15 µM): 0.483; viability (Vorinostat; 0.016 µM): 0.977; viability (Vorinostat; 0.08 µM): 0.869; viability (Vorinostat; 0.4 µM): 0.863; viability (Vorinostat; 2 µM): 0.595; viability (Vorinostat; 10 µM): 0.689; viability (Obatoclax mesylate; 0.024 µM): 0.895; viability (Obatoclax mesylate; 0.12 µM): 0.821; viability (Obatoclax mesylate; 0.6 µM): 0.589; viability (Obatoclax mesylate; 3 µM): 0.465; viability (Obatoclax mesylate; 15 µM): 0.209; viability (Quizartinib; 0.016 µM): 1.01; viability (Quizartinib; 0.08 µM): 1.1; viability (Quizartinib; 0.4 µM): 1.07; viability (Quizartinib; 2 µM): 1.11; viability (Quizartinib; 10 µM): 0.966; viability (Birinapant; 0.0008 µM): 1.07; viability (Birinapant; 0.004 µM): 0.726; viability (Birinapant; 0.02 µM): 0.672; viability (Birinapant; 0.1 µM): 1.14; viability (Birinapant; 0.5 µM): 0.631

How did the viability (Pralatrexate; 0.024 µM) turn out when primary CLL patient cells (S031) was run?
The viability was 1.1.

What about the viability (Pralatrexate; 0.12 µM) of the same test system?
Its viability is 1.08.

And the viability (Pralatrexate; 0.6 µM)?
The viability was 1.04.

What about the viability (Pralatrexate; 3 µM) of the same test system?
Its viability is 1.03.

And the viability (Pralatrexate; 15 µM)?
The viability was 1.01.

What about the viability (TMP269; 0.024 µM) of the same test system?
Its viability is 0.914.

And the viability (TMP269; 0.12 µM)?
The viability was 0.904.

And the viability (TMP269; 0.6 µM)?
Its viability is 0.989.

And the viability (TMP269; 3 µM)?
The viability was 0.939.

What about the viability (TMP269; 15 µM) of the same test system?
Its viability is 0.992.

And the viability (8-Azaguanin; 0.032 µM)?
The viability was 0.92.

And the viability (8-Azaguanin; 0.16 µM)?
Its viability is 0.878.

And the viability (8-Azaguanin; 0.8 µM)?
The viability was 0.794.

And the viability (8-Azaguanin; 4 µM)?
Its viability is 0.483.

And the viability (8-Azaguanin; 20 µM)?
Its viability is 0.267.

And the viability (Tozasertib; 0.024 µM)?
The viability was 0.906.

And the viability (Tozasertib; 0.12 µM)?
Its viability is 0.797.

What about the viability (Tozasertib; 0.6 µM) of the same test system?
Its viability is 0.757.

And the viability (Tozasertib; 3 µM)?
The viability was 0.559.

And the viability (Tozasertib; 15 µM)?
Its viability is 0.284.

And the viability (EPZ-5676; 0.0032 µM)?
Its viability is 0.887.

What about the viability (EPZ-5676; 0.016 µM) of the same test system?
The viability was 0.952.

What about the viability (EPZ-5676; 0.08 µM) of the same test system?
Its viability is 0.895.

And the viability (EPZ-5676; 0.4 µM)?
The viability was 0.881.

And the viability (EPZ-5676; 2 µM)?
Its viability is 0.925.

And the viability ([1]; 0.024 µM)?
The viability was 0.987.

What about the viability ([1]; 0.12 µM) of the same test system?
The viability was 0.97.

And the viability ([1]; 0.6 µM)?
The viability was 0.867.

What about the viability ([1]; 3 µM) of the same test system?
Its viability is 0.141.

What about the viability ([1]; 15 µM) of the same test system?
Its viability is 0.0256.

What about the viability (ONO-4059; 0.0016 µM) of the same test system?
Its viability is 0.831.

What about the viability (ONO-4059; 0.008 µM) of the same test system?
Its viability is 0.829.

What about the viability (ONO-4059; 0.04 µM) of the same test system?
The viability was 0.719.

And the viability (ONO-4059; 0.2 µM)?
The viability was 0.749.

And the viability (ONO-4059; 1 µM)?
The viability was 0.72.

And the viability (Nelarabine; 0.024 µM)?
Its viability is 1.04.

And the viability (Nelarabine; 0.12 µM)?
Its viability is 0.991.

What about the viability (Nelarabine; 0.6 µM) of the same test system?
Its viability is 0.932.

And the viability (Nelarabine; 3 µM)?
The viability was 0.73.

What about the viability (Nelarabine; 15 µM) of the same test system?
The viability was 0.484.

And the viability (Bortezomib; 0.008 µM)?
Its viability is 0.967.

And the viability (Bortezomib; 0.04 µM)?
Its viability is 1.03.

And the viability (Bortezomib; 0.2 µM)?
The viability was 0.938.

What about the viability (Bortezomib; 1 µM) of the same test system?
The viability was 1.04.

And the viability (Bortezomib; 5 µM)?
Its viability is 0.94.

And the viability (Ribociclib; 0.024 µM)?
Its viability is 0.92.

What about the viability (Ribociclib; 0.12 µM) of the same test system?
The viability was 0.861.

What about the viability (Ribociclib; 0.6 µM) of the same test system?
Its viability is 0.828.

What about the viability (Ribociclib; 3 µM) of the same test system?
The viability was 0.639.

What about the viability (Ribociclib; 15 µM) of the same test system?
The viability was 0.377.

What about the viability (BI6727; 0.024 µM) of the same test system?
Its viability is 0.922.

What about the viability (BI6727; 0.12 µM) of the same test system?
Its viability is 0.854.

What about the viability (BI6727; 0.6 µM) of the same test system?
Its viability is 0.866.

And the viability (BI6727; 3 µM)?
The viability was 0.524.

What about the viability (BI6727; 15 µM) of the same test system?
The viability was 0.178.

And the viability (Vorinostat; 0.016 µM)?
The viability was 0.963.

And the viability (Vorinostat; 0.08 µM)?
The viability was 0.995.

And the viability (Vorinostat; 0.4 µM)?
The viability was 0.879.

And the viability (Vorinostat; 2 µM)?
Its viability is 0.197.

And the viability (Vorinostat; 10 µM)?
The viability was 0.0346.

And the viability (Obatoclax mesylate; 0.024 µM)?
The viability was 0.88.

What about the viability (Obatoclax mesylate; 0.12 µM) of the same test system?
Its viability is 0.863.

What about the viability (Obatoclax mesylate; 0.6 µM) of the same test system?
The viability was 0.738.

What about the viability (Obatoclax mesylate; 3 µM) of the same test system?
Its viability is 0.384.

What about the viability (Obatoclax mesylate; 15 µM) of the same test system?
Its viability is 0.0738.

And the viability (Quizartinib; 0.016 µM)?
The viability was 1.03.

And the viability (Quizartinib; 0.08 µM)?
Its viability is 1.15.

What about the viability (Quizartinib; 0.4 µM) of the same test system?
Its viability is 1.04.

And the viability (Quizartinib; 2 µM)?
The viability was 1.13.

And the viability (Quizartinib; 10 µM)?
Its viability is 1.02.

And the viability (Birinapant; 0.0008 µM)?
Its viability is 0.788.

What about the viability (Birinapant; 0.004 µM) of the same test system?
Its viability is 0.923.

And the viability (Birinapant; 0.02 µM)?
The viability was 0.919.

And the viability (Birinapant; 0.1 µM)?
The viability was 0.857.

And the viability (Birinapant; 0.5 µM)?
The viability was 0.984.

From the supplement of paper PMC10733146
